Measurements: patent publication US6291527A (priority 1998, dated 2001)
Where a name gives a salt, the structure may show the parent alone.

Experiments:
prostaglandin E2 (PGE2) = assay: foreign body (sponge) method in the rat: PGE2 in the inflammatory exudate (immunoenzymatic assay); type: in vivo; details: for PGE2 concentration in the inflammatory exudate / % inhibition versus controls of PGE2: oral, 8 hours, listed as KGS; for PGE2 concentration in the inflammatory exudate: mean, controls 98.7 ± 4.7
Experimental: (§1) These tests involved the use of 100 male CD strain rats (Charles River, Calco, LC, Italy) weighing 180±8 g. The animals were fasted for 12 hours (water ad libitum) before being used for the experiment.
(§2) The inflammatory reaction with the formation of exudate was induced by using sterilized polyester sponges (4×1.5×0.5 cm) soaked in carrageen dissolved at a 2% concentration in sterile physiological solution. The rats were anesthetized lightly with ether and two sponges per rat were implanted subcutaneously in a previously shaven dorsal area.
(§3) The sponges were removed 8 hours later after having sacrificed the animals by ether euthanasia, and immediately placed in large polyethylene 50 ml test tubes containing 10 ml of heparinized physiological solution. The test tubes were then subjected to centrifugation (1000 rotations; 15 minutes), followed by removal of the sponges and accurate measurement of the volume of the remaining fluid. Always using the Higgs et al. method, the acid lipids present in the fluid were extracted in chloroform with prior dilution in ethanol and acidification to pH 3. After complete evaporation of the chloroform, the remaining dry residue was dissolved in physiological solution and used for the immunoenzymatic assay of prostaglandin E2 (PGE2).
(§4) All the other reagents used for the tests were purchased from Merck-Bracco (Milan, Italy).

[1] = animal studies of the three salts vs Ketoprofen acid and Ketoprofen sodium salt: distribution and kinetics; type: in vivo, experimental animals
Text: The three above mentioned Ketoprofen salts were compared with Ketoprofen acid and Ketoprofen sodium salt in animal studies.

[2] = tested on: inflammatory exudate (IE); assay: foreign body (sponge) method in the rat: inflammatory exudate volume; type: in vivo; details: for IE (inflammatory exudate) volume / % inhibition versus controls of IE: oral, 8 hours, listed as KGS; for IE (inflammatory exudate) volume: mean ± MSE, controls 5.15 ± 0.28
Experimental: as §1, §2, §3, §4

carrageen edema = carrageen edema test in the rat (hind paw volume, plethysmometer); details: for evolution of paw volume (delta in ml) at 1st hour / evolution of paw volume (delta in ml) at 2nd hour / evolution of paw volume (delta in ml) at 3rd hour / evolution of paw volume (delta in ml) at 4th hour / evolution of paw volume (delta in ml) at 5th hour / evolution of paw volume (delta in ml) at 6th hour: mean ± MSE; for % inhibition vs controls (paw edema AUC): p < 0.001; for AUC (mean ± MSE) of increase in paw volume: paw volume (delta in ml) vs time (0 to 6 hours), controls 4.23 ± 0.26
[3] = rat, 0.5, 1, 2 and 4 mg/kg per os
[4] = rat, oral, 1 mg/kg, listed as KGS
[5] = rat, oral, 2 mg/kg, listed as KGS

With `CC(C(=O)O)c1cccc(C(=O)c2ccccc2)c1` (stereo not shown) [Ketoprofen Glucosamine salt] the ED50 (prostaglandin E2 (PGE2); Rattus norvegicus, po, 8 h, rat, 95% confidence limits KGS 1.848-2.131, KLS 2.215-3.005) was 1.99 mg/kg, the “inhibition of PGE2 activity in exudates” value (prostaglandin E2 (PGE2); [3]) was “singificant inhibition of PGE2 activity” and the “PGE2 concentration in the inflammatory exudate” value (“PGE2 concentration” below) (prostaglandin E2 (PGE2); rat, 0.5 mg/kg) was 67.6 ng/mL. For the same molecule, the “% inhibition versus controls of PGE2” value (prostaglandin E2 (PGE2); rat, 0.5 mg/kg) was 31.5%, the “PGE2 concentration” value (prostaglandin E2 (PGE2); rat, 1 mg/kg) was 60.5 ng/mL and the “% inhibition versus controls of PGE2” value (prostaglandin E2 (PGE2); rat, 1 mg/kg) was 38.7%. For the same molecule, the “PGE2 concentration” value (prostaglandin E2 (PGE2); rat, 2 mg/kg) was 49.9 ng/mL, the “% inhibition versus controls of PGE2” value (prostaglandin E2 (PGE2); rat, 2 mg/kg) was 49.4% and the “PGE2 concentration” value (prostaglandin E2 (PGE2); rat, 4 mg/kg) was 24.9 ng/mL. For the same molecule, the “% inhibition versus controls of PGE2” value (prostaglandin E2 (PGE2); rat, 4 mg/kg) was 74.8%, the “active substance concentration in the inflamed site” value ([1]; injection, vs Ketoprofen sodium salt) was “much greater than that observed with Ketoprofen sodium salt” and the “kinetic parameters after oral administration” value ([1]; oral, vs Ketoprofen acid and Ketoprofen sodium salt) was “significantly different”. The ED50 ([2]; Rattus norvegicus, po, 8 h, rat, 95% confidence limits KGS 1.802-2.381, KLS 2.334-3.094) was 2.09 mg/kg, the “control of the inflammatory response to sponge implantation” value [2, 3] was “controls the vasculo-exudative inflammatory response in a dose dependent manner” and the “IE (inflammatory exudate) volume” value ([2]; rat, 0.5 mg/kg) was 3.87 ± 0.27 mL. For the same molecule, the “% inhibition versus controls of IE” value ([2]; rat, 0.5 mg/kg) was 24.8%, the “IE (inflammatory exudate) volume” value ([2]; rat, 1 mg/kg) was 3.56 ± 0.28 mL and the “% inhibition versus controls of IE” value ([2]; rat, 1 mg/kg) was 30.9%. The “IE (inflammatory exudate) volume” value ([2]; rat, 2 mg/kg) was 2.53 ± 0.22 mL, the “% inhibition versus controls of IE” value ([2]; rat, 2 mg/kg) was 50.9% and the “IE (inflammatory exudate) volume” value ([2]; rat, 4 mg/kg) was 1.05 ± 0.09 mL. The “% inhibition versus controls of IE” value ([2]; rat, 4 mg/kg) was 79.6%, the ED50 (carrageen edema; Rattus norvegicus, po, read-out: oral ED50 (carrageen edema, extrapolated from AUC), rat, oral, 95% conf. lim. KGS 0.733-1.474, KLS 1.198-1.567) was 1.1 mg/kg and the “anti-inflammatory / anti-edematogenic effect” value (carrageen edema; rat, oral) was “dose-dependent”. The “anti-inflammatory activity compared with Ketoprofen Lysine salt” value (carrageen edema; rat, oral 0.5, 1 and 2 mg/kg) was “comparable”, the “evolution of paw volume (delta in ml) at 1st hour” value (carrageen edema; rat, oral, 0.5 mg/kg, controls 0.40 ± 0.02, listed as KGS) was 0.28 ± 0.02 mL and the “evolution of paw volume (delta in ml) at 2nd hour” value (carrageen edema; rat, oral, 0.5 mg/kg, controls 0.71 ± 0.02, listed as KGS) was 0.51 ± 0.03 mL. The “evolution of paw volume (delta in ml) at 3rd hour” value (carrageen edema; rat, oral, 0.5 mg/kg, controls 0.87 ± 0.03, listed as KGS) was 0.62 ± 0.04 mL, the “evolution of paw volume (delta in ml) at 4th hour” value (carrageen edema; rat, oral, 0.5 mg/kg, controls 0.93 ± 0.03, listed as KGS) was 0.65 ± 0.04 mL and the “evolution of paw volume (delta in ml) at 5th hour” value (carrageen edema; rat, oral, 0.5 mg/kg, controls 0.90 ± 0.04, listed as KGS) was 0.62 ± 0.05 mL. The “evolution of paw volume (delta in ml) at 6th hour” value (carrageen edema; rat, oral, 0.5 mg/kg, controls 0.84 ± 0.04, listed as KGS) was 0.56 ± 0.05 mL, the “% inhibition vs controls (paw edema AUC)” value (carrageen edema; rat, oral, 0.5 mg/kg) was 30% and the “% inhibition vs controls (paw edema AUC)” value (carrageen edema; rat, oral, 0.5 mg/kg, listed as KGS) was 30.0%. The “AUC (mean ± MSE) of increase in paw volume” value (“AUC (mean ± MSE) of increase” for short) (carrageen edema; rat, oral, 0.5 mg/kg, listed as KGS, 0.5 mg/kg) was 2.96 ± 0.15, the “evolution of paw volume (delta in ml) at 1st hour” value (carrageen edema; [4]) was 0.23 ± 0.01 mL and the “evolution of paw volume (delta in ml) at 2nd hour” value (carrageen edema; [4]) was 0.39 ± 0.02 mL. The “evolution of paw volume (delta in ml) at 3rd hour” value (carrageen edema; [4]) was 0.46 ± 0.02 mL, the “evolution of paw volume (delta in ml) at 4th hour” value (carrageen edema; [4]) was 0.48 ± 0.02 mL and the “evolution of paw volume (delta in ml) at 5th hour” value (carrageen edema; [4]) was 0.45 ± 0.02 mL. The “evolution of paw volume (delta in ml) at 6th hour” value (carrageen edema; [4]) was 0.39 ± 0.03 mL, the “% inhibition vs controls (paw edema AUC)” value (carrageen edema; rat, oral, 1 mg/kg) was 48% and the “% inhibition vs controls (paw edema AUC)” value (carrageen edema; [4]) was 48.0%. For the same molecule, the “AUC (mean ± MSE) of increase” value (carrageen edema; rat, oral, 1 mg/kg, listed as KGS, 1 mg/kg) was 2.20 ± 0.13, the “evolution of paw volume (delta in ml) at 1st hour” value (carrageen edema; [5]) was 0.11 ± 0.02 mL and the “evolution of paw volume (delta in ml) at 2nd hour” value (carrageen edema; [5]) was 0.20 ± 0.02 mL. For the same molecule, the “evolution of paw volume (delta in ml) at 3rd hour” value (carrageen edema; [5]) was 0.26 ± 0.03 mL, the “evolution of paw volume (delta in ml) at 4th hour” value (carrageen edema; [5]) was 0.28 ± 0.03 mL and the “evolution of paw volume (delta in ml) at 5th hour” value (carrageen edema; [5]) was 0.25 ± 0.03 mL. The “evolution of paw volume (delta in ml) at 6th hour” value (carrageen edema; [5]) was 0.16 ± 0.02 mL, the “% inhibition vs controls (paw edema AUC)” value (carrageen edema; rat, oral, 2 mg/kg) was 72% and the “% inhibition vs controls (paw edema AUC)” value (carrageen edema; [5]) was 72.1%. For the same molecule, the “AUC (mean ± MSE) of increase” value (carrageen edema; rat, oral, 2 mg/kg, listed as KGS, 2 mg/kg) was 1.18 ± 0.06.
